The values that follow come from ChEMBL document CHEMBL1158637, “Orally bioavailable dual MMP-1/MMP-14 sparing, MMP-13 selective alpha-sulfone hydroxamates” (Bioorg Med Chem Lett, 2010).

The nature of data set [1]: Selectivity ratio of IC50 for MMP2 to IC50 for MMP13.
The target in data set [2] is 72 kDa type IV collagenase (Homo sapiens, UniProt P08253). In words: Inhibition of MMP2.
Data set [3] concerns the target Collagenase 3 (Homo sapiens, UniProt P45452). Description: Inhibition of MMP13.
The target of data set [4] is Interstitial collagenase (Homo sapiens, UniProt P03956). Description: Inhibition of MMP1.
Sequence of Interstitial collagenase (P03956 whole entry): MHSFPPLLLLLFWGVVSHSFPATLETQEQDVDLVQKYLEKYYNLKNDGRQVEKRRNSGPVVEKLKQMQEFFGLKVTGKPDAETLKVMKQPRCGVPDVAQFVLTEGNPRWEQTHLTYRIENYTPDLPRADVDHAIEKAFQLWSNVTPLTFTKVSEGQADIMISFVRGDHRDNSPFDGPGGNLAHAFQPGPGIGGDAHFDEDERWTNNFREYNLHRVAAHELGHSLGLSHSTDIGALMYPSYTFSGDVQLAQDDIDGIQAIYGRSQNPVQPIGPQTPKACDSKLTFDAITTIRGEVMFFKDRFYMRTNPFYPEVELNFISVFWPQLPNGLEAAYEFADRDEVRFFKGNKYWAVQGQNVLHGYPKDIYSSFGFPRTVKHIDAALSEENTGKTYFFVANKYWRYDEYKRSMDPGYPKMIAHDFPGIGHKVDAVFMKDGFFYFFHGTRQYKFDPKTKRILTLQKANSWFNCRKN
The target of data set [5] is Stromelysin-1 (Homo sapiens, UniProt P08254). In words: Inhibition of MMP3.
Sequence of Stromelysin-1 (P08254 whole entry): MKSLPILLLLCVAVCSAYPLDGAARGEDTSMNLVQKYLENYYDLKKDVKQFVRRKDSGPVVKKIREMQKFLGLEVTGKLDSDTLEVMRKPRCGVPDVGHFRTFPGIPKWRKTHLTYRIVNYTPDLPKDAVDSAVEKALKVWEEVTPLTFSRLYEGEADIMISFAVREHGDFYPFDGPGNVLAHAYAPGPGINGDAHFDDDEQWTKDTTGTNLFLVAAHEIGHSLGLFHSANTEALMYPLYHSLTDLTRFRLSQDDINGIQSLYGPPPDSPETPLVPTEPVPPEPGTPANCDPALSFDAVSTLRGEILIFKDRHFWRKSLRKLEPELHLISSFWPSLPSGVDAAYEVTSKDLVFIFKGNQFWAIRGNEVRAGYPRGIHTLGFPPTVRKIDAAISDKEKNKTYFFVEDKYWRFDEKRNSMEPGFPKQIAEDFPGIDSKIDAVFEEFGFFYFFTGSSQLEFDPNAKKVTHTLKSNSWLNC
Data set [6] addresses Neutrophil collagenase (Homo sapiens, UniProt P22894). Description: Inhibition of MMP8.
Data set [7] can be described thus: Half life in rat. It counts as ADME, organism-based. The settings on record: in vivo.
The nature of data set [8]: Oral bioavailability in rat. The class given is ADME, organism-based. The following applies: in vivo.
Data set [9] addresses T1, Matrilysin (Homo sapiens, UniProt P09237).
T1 sequence (P09237 whole entry): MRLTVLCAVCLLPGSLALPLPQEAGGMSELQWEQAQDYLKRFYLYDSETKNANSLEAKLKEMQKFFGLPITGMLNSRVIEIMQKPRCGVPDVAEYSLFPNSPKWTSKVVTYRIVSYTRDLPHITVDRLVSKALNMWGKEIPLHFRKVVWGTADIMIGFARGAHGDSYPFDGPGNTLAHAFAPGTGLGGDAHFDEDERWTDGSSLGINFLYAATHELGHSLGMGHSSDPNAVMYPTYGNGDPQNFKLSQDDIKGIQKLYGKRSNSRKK
Description: Inhibition of MMP7.

Sequence of 72 kDa type IV collagenase (P08253 whole entry): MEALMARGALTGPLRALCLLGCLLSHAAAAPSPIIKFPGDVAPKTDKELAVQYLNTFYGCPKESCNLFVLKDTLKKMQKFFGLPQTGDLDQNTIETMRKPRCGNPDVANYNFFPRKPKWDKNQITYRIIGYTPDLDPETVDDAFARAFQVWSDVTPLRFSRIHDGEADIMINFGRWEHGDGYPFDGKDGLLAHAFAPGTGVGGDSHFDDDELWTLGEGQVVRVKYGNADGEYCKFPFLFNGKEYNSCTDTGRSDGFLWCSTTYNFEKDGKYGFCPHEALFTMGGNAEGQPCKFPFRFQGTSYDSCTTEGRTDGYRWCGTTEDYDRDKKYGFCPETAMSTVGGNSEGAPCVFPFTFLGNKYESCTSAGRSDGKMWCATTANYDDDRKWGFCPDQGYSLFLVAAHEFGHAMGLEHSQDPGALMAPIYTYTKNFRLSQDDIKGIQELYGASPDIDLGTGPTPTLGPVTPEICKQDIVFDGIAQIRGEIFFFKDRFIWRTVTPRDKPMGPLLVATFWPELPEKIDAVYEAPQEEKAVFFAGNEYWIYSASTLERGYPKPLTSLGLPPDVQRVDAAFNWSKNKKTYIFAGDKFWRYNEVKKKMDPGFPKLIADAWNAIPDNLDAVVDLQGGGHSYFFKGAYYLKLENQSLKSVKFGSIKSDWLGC
Sequence of Neutrophil collagenase (P22894 whole entry): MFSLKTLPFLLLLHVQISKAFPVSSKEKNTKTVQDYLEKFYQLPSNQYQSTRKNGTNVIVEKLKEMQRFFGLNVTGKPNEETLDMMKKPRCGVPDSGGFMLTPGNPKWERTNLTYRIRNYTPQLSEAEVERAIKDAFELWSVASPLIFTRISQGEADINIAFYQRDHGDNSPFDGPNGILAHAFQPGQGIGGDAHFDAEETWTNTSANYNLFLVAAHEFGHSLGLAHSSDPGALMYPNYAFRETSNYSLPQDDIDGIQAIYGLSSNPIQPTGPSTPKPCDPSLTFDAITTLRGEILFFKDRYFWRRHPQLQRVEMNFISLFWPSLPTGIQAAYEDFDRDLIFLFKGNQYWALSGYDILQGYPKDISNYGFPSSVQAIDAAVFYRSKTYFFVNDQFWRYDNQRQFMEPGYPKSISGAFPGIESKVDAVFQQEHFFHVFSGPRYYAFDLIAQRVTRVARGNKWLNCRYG

`COc1ccc(C2CCN(c3ccc(S(=O)(=O)C4(C(=O)NO)CCOCC4)cc3)CC2)c(C)c1`: in [1], the Ratio IC50 came to 72.1.
Turning to `O=C(NO)C1(S(=O)(=O)c2ccc(N3CCC(c4ccccc4Cl)CC3)cc2)CCOCC1`, the IC50 worked out at 82 nM in data set [2] and 42.5 nM in [3]. In addition, the Ratio IC50 in [1] amounted to 1.9.
Regarding `Cc1ccc(N2CCN(c3ccc(S(=O)(=O)C4(C(=O)NO)CCOCC4)cc3)CC2)c(C)c1`, the IC50 in data set [2] was found to be 1400 nM; in [3], 28.6 nM. Further, the Ratio IC50 in [1] was determined as 49.
On to `COc1ccc(N2CCN(c3ccc(S(=O)(=O)C4(C(=O)NO)CCN(C5CC5)CC4)cc3)CC2)cc1`, for which the IC50 in data set [2] is 5.3 nM; in data set [3], 0.42 nM; in data set [4], greater than 10000 nM; in [5], 24.5 nM; in [6], 59.2 nM. In addition, the half-life in data set [7] was 0.24 h. The bioavailability in data set [8] stood at 20.7%.
Turning to `CCOc1ccccc1C1CCN(c2ccc(S(=O)(=O)C3(C(=O)NO)CCOCC3)cc2)CC1`, in data set [1], the Ratio IC50 was found to be 88.6.
Take `O=C(NO)C1(S(=O)(=O)c2ccc(N3CCN(c4ccc(Cl)cc4)CC3)cc2)CCOCC1`: the IC50 in data set [2] was 3.7 nM; in data set [3] it was 1 nM; in [4], greater than 10000 nM; in data set [5], 130 nM; in data set [6] it was 1000 nM. The half-life in [7] is 1.91 h. This compound also yielded a bioavailability in data set [8] of 7.4%.
Regarding `Cc1ccccc1N1CCN(c2ccc(S(=O)(=O)C3(C(=O)NO)CCOCC3)cc2)CC1`, the Ratio IC50 in [1] is 11.4.
For the compound `O=C(NO)C1(S(=O)(=O)c2ccc(N3CCN(c4ccc(C(F)(F)F)cc4)CC3)cc2)CCOCC1`, the IC50 in data set [2] is 12.1 nM; in data set [3], 0.6 nM; in data set [4] it was greater than 10000 nM; in data set [5] it was 300 nM; in data set [9] it was greater than 10000 nM; in data set [6] it was 670 nM. The same compound gave a half-life in data set [7] of 2.59 h. Also, the bioavailability in [8] came out at 16.3%.
As for `O=C(NO)C1(S(=O)(=O)c2ccc(N3CCC(c4ccccc4C(F)(F)F)CC3)cc2)CCOCC1`, the Ratio IC50 in data set [1] is 31.3.
Regarding `O=C(NO)C1(S(=O)(=O)c2ccc(N3CCN(c4ccccc4F)CC3)cc2)CCOCC1`, in [1], the Ratio IC50 was determined as 7.8.
As for `C#CCN1CCC(C(=O)NO)(S(=O)(=O)c2ccc(Sc3ccccc3)cc2)CC1`, the IC50 is 0.33 nM in [2]; 8660 nM in [4]; 13 nM in [5]; greater than 10000 nM in [9]; 1.8 nM in [6].
`COc1cccc(N2CCN(c3ccc(S(=O)(=O)C4(C(=O)NO)CCOCC4)cc3)CC2)c1`: the IC50 stood at 48.5 nM in data set [2] and 8 nM in data set [3]. Moreover, the Ratio IC50 in data set [1] worked out at 6.1.
The corresponding values for `O=C(NO)C1(S(=O)(=O)c2ccc(N3CCN(c4cccc(C(F)(F)F)c4)CC3)cc2)CCOCC1` are 330 nM, 20 nM and 16.5.
As to `O=C(NO)C1(S(=O)(=O)c2ccc(N3CCN(c4ccc(C(F)(F)F)cc4)CC3)cc2)CCN(C2CC2)CC1`, the IC50 in data set [2] was 32.6 nM; in [3] it was 2.4 nM. In data set [1], the Ratio IC50 was found to be 13.6.
`O=C(NO)C1(S(=O)(=O)c2ccc(N3CCC(c4ccccc4)CC3)cc2)CCOCC1`: the Ratio IC50 in data set [1] is 0.7.
On the same count and under the same terms, in the case of `O=C(NO)C1(S(=O)(=O)c2ccc(N3CCN(c4ccccc4Cl)CC3)cc2)CCOCC1` it was 4.4.
On to `Cc1ccccc1C1CCN(c2ccc(S(=O)(=O)C3(C(=O)NO)CCOCC3)cc2)CC1`, for which the IC50 in [2] is 700 nM; in data set [3], 32.7 nM. The Ratio IC50 in data set [1] came out at 21.4.
The corresponding values for `COc1ccc(N2CCN(c3ccc(S(=O)(=O)C4(C(=O)NO)CCOCC4)cc3)CC2)cc1` are 18.4 nM, 0.5 nM and 29.
For `Cc1ccc(N2CCN(c3ccc(S(=O)(=O)C4(C(=O)NO)CCOCC4)cc3)CC2)cc1`, the Ratio IC50 in [1] was found to be 18.4.
For `O=C(NO)C1(S(=O)(=O)c2ccc(N3CCC(c4ccccc4-c4ccc(F)cc4)CC3)cc2)CCOCC1`, in data set [1], the Ratio IC50 is 160.
Turning to `O=C(NO)C1(S(=O)(=O)c2ccc(N3CCC(c4cccc5ccccc45)CC3)cc2)CCOCC1`, the Ratio IC50 in data set [1] was 43.9.
Regarding `COc1ccc(C2CCN(c3ccc(S(=O)(=O)C4(C(=O)NO)CCOCC4)cc3)CC2)c(OC)c1`, in data set [1], the Ratio IC50 worked out at 159.
For the compound `COc1ccccc1C1CCN(c2ccc(S(=O)(=O)C3(C(=O)NO)CCOCC3)cc2)CC1`, the IC50 is 3700 nM in data set [2] and 17.5 nM in data set [3]. For the same compound, in data set [1], the Ratio IC50 is 211.
For `COc1ccc(C(C)C)cc1C1CCN(c2ccc(S(=O)(=O)C3(C(=O)NO)CCOCC3)cc2)CC1`, the IC50 in [2] was greater than 10000 nM; in data set [3], 70 nM. Moreover, the Ratio IC50 in data set [1] was 143.
In the case of `COc1ccc(OC)c(C2CCN(c3ccc(S(=O)(=O)C4(C(=O)NO)CCOCC4)cc3)CC2)c1`, the IC50 is 800 nM in data set [2] and 11.4 nM in data set [3]. Further, the Ratio IC50 in data set [1] is 70.2.
Take `O=C(NO)C1(S(=O)(=O)c2ccc(N3CCC(c4ccccc4O)CC3)cc2)CCOCC1`: the Ratio IC50 in [1] is 6.2.
On to `COc1ccccc1N1CCN(c2ccc(S(=O)(=O)C3(C(=O)NO)CCOCC3)cc2)CC1`, for which the Ratio IC50 in data set [1] was determined as 2.8.
On the same count and under the same terms, the same measure for `O=C(NO)C1(S(=O)(=O)c2ccc(N3CCC(c4ccc(Cl)cc4)CC3)cc2)CCOCC1`: 2.9.
With `O=C(NO)C1(S(=O)(=O)c2ccc(N3CCN(c4ccccc4)CC3)cc2)CCOCC1`, in data set [1], the Ratio IC50 was 13.8.
As to `O=C(NO)C1(S(=O)(=O)c2ccc(N3CCN(c4ccccc4)CC3)cc2)CCN(C2CC2)CC1`, the IC50 in data set [2] turned out to be 5.4 nM; in [3] it was 3.3 nM. The Ratio IC50 in data set [1] amounted to 1.6.

The IC50 is the concentration that gives 50% inhibition. Read a low IC50 as greater potency. A word on the half-life: it is the time in which the quantity being followed falls by half. As usually defined, the bioavailability is the share of a dose that reaches the circulation, judged against a reference dose that is usually intravenous.
